Test results from patent publication EP0252983B1, “SALTS OF N-(VINYLOXIETHYL)DITHIOCARBAMIC ACID, METHOD OF OBTAINING THEREOF AND […] ON THEM” (priority 1985, dated 1987).

Columns and labels:
[1] = system: Chaetomium globosum; assay: Mycelial growth inhibition on agar (contact activity); format: cell-based
Procedure: (§1) Die Prüfungen werden nach dem Verfahren zur Ermittlung der Kontaktaktivität durchgeführt. Man verwendet das in Wasser gelöste Kalium-N-(vinyloxyäthyl)dithiocarbamat, führt es in ein Nährmedium ein und vergießt auf Petri-Schalen. Nach 24 Stunden wird mit Pilzmyzelium nach einem Stichverfahren geimpft. Dann temperiert man die Schalen innerhalb von 5 Tagen bei einer zwischen 24 und 26 °C liegenden Temperatur und mißt den Durchmesser von Pilzkolonien, ermittelt den Prozentsatz der Hemmung des Myzelwachstums (S) ausgehend von Angaben am 5. Tag nach der Abbott-Formel [drawing 13] worin dc für den Durchmesser der Pilzkolonien, de für den Durchmesser von Pilzkolonien in der Schale stehen, wo ein die zu prüfenden Stoffe enthaltendes Medium vorhanden ist. Dieses Verfahren zur Ermittlung der mikrobiologischen Aktivität ist in anderen Beispielen verwendet.

[2] = system: Paecilomyces varioti; assay: as above; format: cell-based; settings: Paecilomyces, 120 h; Wirkstoffkonzentration 0,003 %; Tabelle 3; read-out: Mycelhemmung, in %
Procedure: as §1

[3] = system: Penicillium funiculosum; assay: as above; format: cell-based
Procedure: as §1

[4] = system: Stereum hirsutum; assay: as above; format: cell-based; settings: Stereum hirsutum, 120 h; Wirkstoffkonzentration 0,003 %; Tabelle 3; read-out: Mycelhemmung, in %
Procedure: as §1

[5] = system: Fusarium oxysporum; assay: Soil fungicide test (fungal discs in treated soil); format: cell-based; parameters: key: Das Vorhandensein (+); das Fehlen (-) des wachsenden Myzels um die Scheibe herum; settings: 160 mg/kg Boden
Procedure: (§2) Eine 50 g schwere Bodenprobe bringt man in ein Glasgefäß ein, sterilisiert innerhalb von 2 Stunden unter einem Druck von 2 atm, gibt dann dem Boden das Präparat als wäßrige Lösung ausgehend von 160 mg/kg zu, wonach in den Boden Scheiben mit Kulturen folgender Pilze Fusarium oxysporum, Verticillium dahliae, Rhizoctonia solani, Pythium ultimum untergebracht werden.
(§3) Nach 24 und 48 Stunden werden die Scheiben in fließendem Wasser, dann in sterilem Wasser gewaschen, auf sterilem Filterpapier getrocknet und auf eine reine Agarplatte gelegt. Das Vorhandensein (+) oder das Fehlen (-) des wachsenden Myzels um die Scheibe herum wies auf die Wirksamkeit des Präparats. Als Vergleichsmuster diente dabei Karbathion. Die Prüfergebnisse sind in der Tabelle 5 dargestellt.

[6] = system: Pythium ultimum; assay: Soil fungicide test (fungal discs in treated soil); format: cell-based; parameters: key: Das Vorhandensein (+); das Fehlen (-) des wachsenden Myzels um die Scheibe herum; settings: 160 mg/kg Boden
Procedure: as §2, §3

[7] = system: Rhizoctonia solani; assay: Soil fungicide test (fungal discs in treated soil); format: cell-based; parameters: key: Das Vorhandensein (+); das Fehlen (-) des wachsenden Myzels um die Scheibe herum; settings: 160 mg/kg Boden
Procedure: as §2, §3

[8] = system: Verticillium dahliae; assay: Soil fungicide test (fungal discs in treated soil); format: cell-based; parameters: key: Das Vorhandensein (+); das Fehlen (-) des wachsenden Myzels um die Scheibe herum; settings: 160 mg/kg Boden
Procedure: as §2, §3

[9] = system: Escherichia; assay: Bactericidal activity on agar (concentration of complete growth inhibition); format: cell-based; settings: % bezogen auf den Wirkstoff; am 5. Tag; listed as Kaliumsalz
Procedure: (§4) Geprüft wird die bakterizide Aktivität von Kalium-, Natrium-, Zink- und Kupfersalzen der N-(Vinyloxyäthyl)dithiocarbamidsäure gegen Bakterien der Gattungen Bacillus, Micrococcus, Pseudomonas, Escherichia und Xantomonas.
(§5) Man stellt wäßrige Stofflösungen verschiedener Konzentration her, die so berechnet werden, daß die Stoffkonzentration in der Petri-Schale bei der Gabe von 1 ml Lösung in das geschmolzene Nährmedium (45 bis 50 °C) zwischen 0,003 und 25 % (bezogen auf den Wirkstoff) schwankt. Nach 18 bis 24 Stunden bringt man auf die Oberfläche des Nährmediums 0,1 ml wäßrige Suspension eintägiger reiner Kulturen von Bakterien auf und verteilt sie gleichmäßig. In Kontrollschalen verteilt sich 0,1 ml Wasser über die Oberfläche des Nährmediums. Die Inkubation erfolgt bei 37 °C innerhalb von 5 Tagen. Die Wirksamkeit der Stoffe wird nach dem Auftreten des Bakterienwachstums auf der Oberfläche des Nährmediums eingeschätzt. Die Prüfergebnisse sind in der Tabelle 13 dargestellt.

[10] = system: Pseudomonas; assay: as above; format: cell-based; settings: % bezogen auf den Wirkstoff; am 5. Tag; listed as Kaliumsalz
Procedure: as §4, §5

[11] = system: Psoroptes cuniculi; assay: Acaricidal activity on isolated mites; format: in vivo
Procedure: Die akarizide Aktivität der Stoffe wird an isolierten Milben Psoroptes cuniculi als Erreger der Psoroptesräude bei Kaninchen geprüft. Von frischen Verkrustungen von Kaninchen mit Psoroptesräude, werden zu diesem Zweck 50 Milbenexemplare (Larven, Nymphen, Imago) gewählt und in Petri-Schalen auf ein Filterpapierblatt übertragen. Dann bringt man auf Milben und die ganze Blattoberfläche 1,5 ml zu prüfende wäßrige Stofflösung in destilliertem Wasser auf. Die Schale wird mit Deckel verschlossen und in einen Thermostat bei 30 °C und Feuchtegehalt von 90 % angeordnet. Der Wirkstoff wird als wäßrige Lösung mit einer zwischen 0,0039 und 4 % liegenden Konzentration genommen. Als Vergleichsmuster dient gleichzeitig eine wäßrige Lösung von Chlorophos. Milben werden im Kontrollversuch (Kontrolle auf Lebensfähigkeit)mit 1,5 ml physiologischer Lösung behandelt und in einen anderen Thermostat unter gleichen Temperatur- und Feuchtigkeitsbedingungen aufgestellt.
Nach 1, 2, 4, 6 Stunden und alle 24 Stunden betrachtet man die Milben im Mikroskop und zählt die toten Milben. Aufgrund der Milbenvernichtung durch einen 24-stündigen Kontakt mit dem Wirkstoff ermittelt man die LK-50 Werte. Die Versuche werden 5mal wiederholt. Arithmetische Mittelwerte gibt Tabelle 14 an.

[12] = Acute toxicity (LD50) in mice; format: in vivo, weißen Mäusen; settings: mouse, in vivo, po; perorale Applikation an weißen Mäusen; read-out: LD50
[13] = system: Wurzelschimmelkomplex von Gewächshausgurken; assay: Greenhouse trial against cucumber root mould complex (200 m^2); format: in vivo
Text: Kalium-N-(vinyloxyäthyl)dithiocarbamat wurde gegen Wurzelschimmelkomplex von Gewächshausgurken auf einer Fläche von 200 m^2 und 1 ha geprüft. Die auf einer 200 m^2 großen Fläche durchgeführten Prüfungen haben gezeigt, daß Kalium-N-(vinyloxyäthyl)dithiocarbamat die 100%ige Unterdrückung von Erregern der Pythium-Fäule und der begleitenden Gurkenwurzelschimmeln bewirkt. Der Ernteertrag steigt dabei durch Bodenbehandlung um 4,2 kg/m^2 gegenüber Kontrolle (ohne Wirkstoffgabe ist der Ertrag 10 kg/m^2 und um 1,6 kg/m^2 gegenüber Fundazol an.

[14] = Solubility in water (descriptive); format: physicochemical
[15] = Storage stability (descriptive); format: physicochemical
[16] = system: Acremonium cowum; assay: Mycelial growth inhibition on agar (contact activity); format: cell-based; settings: 120 h, Würzeagar, read-out: Myzelhemmung in %

**Q.** What does the source list for `C=COCCNC(=S)S` [Kalium-N-(vinyloxyäthyl)dithiocarbamat]?
**A.** inhibition of growth at 0.003 % ([1]; Chaetomium globosum, 120 h, Wirkstoffkonzentration 0,003 %, Tabelle 3, read-out: Mycelhemmung, in %): 100%; Aktivität übersteigt Polykarbazin (Vergleichsmuster) ([1]; gegen das Myzelium der Pilze Chaetomium globosum): 10%; inhibition of growth at 0.003 % [2]: 100%; inhibition of growth at 0.003 % ([3]; Talaromyces funiculosus, 120 h, Wirkstoffkonzentration 0,003 %, Tabelle 3, read-out: Mycelhemmung, in %): 100%; Aktivität übersteigt Salizylanilid (Vergleichsmuster) ([3]; gegen Myzelium von Penicillium funiculosum): 10%; inhibition of growth at 0.003 % [4]: 100%; wachsendes Myzel um die Scheibe ([5]; Haltedauer 24 Stunden): -; wachsendes Myzel um die Scheibe ([5]; Haltedauer 48 Stunden): -; wachsendes Myzel um die Scheibe ([6]; Haltedauer 24 Stunden): -; wachsendes Myzel um die Scheibe ([6]; Haltedauer 48 Stunden): -; wachsendes Myzel um die Scheibe ([7]; Haltedauer 24 Stunden): -; wachsendes Myzel um die Scheibe ([7]; Haltedauer 48 Stunden): -; wachsendes Myzel um die Scheibe ([8]; Haltedauer 24 Stunden): -; wachsendes Myzel um die Scheibe ([8]; Haltedauer 48 Stunden): -; Konzentrationen, welche das Bakterienwachstum völlig (100 %) hemmen [9]: 0,05%; Konzentrationen, welche das Bakterienwachstum völlig (100 %) hemmen [10]: 0,05%; LK-50 % ([11]; 24-stündiger Kontakt mit dem Wirkstoff): 0,00208%; Vernichtung von 100 % der Milben nach Stunden ([11]; Konzentration 0,0039 %): 48 Stunden; Vernichtung von 100 % der Milben nach Stunden ([11]; Konzentration 0,0078 %): 24 Stunden; Vernichtung von 100 % der Milben nach Stunden ([11]; Konzentration 0,0625 %): 6 Stunden; Vernichtung von 100 % der Milben nach Stunden ([11]; Konzentration 0,125 bis 0,5 %): 4 Stunden; selektive Toxizität gegen Räudemilben, dem Chlorophos überlegen ([11]; gegenüber Chlorophos): ~400 mal; LD50 [12]: 1400 ± 350 mg/kg; Unterdrückung von Erregern der Pythium-Fäule und der begleitenden Gurkenwurzelschimmeln ([13]; 200 m^2 große Fläche): 100%; Ernteertrag steigt gegenüber Fundazol ([13]; Bodenbehandlung, 200 m^2): 1,6 kg/m^2; Ernteertrag steigt gegenüber Kontrolle ([13]; Bodenbehandlung, 200 m^2, Kontrolle 10 kg/m^2): 4,2 kg/m^2; Löslichkeit in Wasser [14]: gut; Lagerbeständigkeit [15]: lagerbeständig; inhibition of growth at 0.003 % ([16]; Präparatkonzentration 0,003 %): 100%; inhibition of growth at 0.006 % ([16]; Präparatkonzentration 0,006 %): 100%
